Assay [1] deals with BTK enzyme (recombinant full-length BTK, hBTK) (Homo sapiens (Human), UniProt Q06187). Put plainly: Btk enzyme activity assay, LANCE TR-FRET. The assay is classed as biochemical. The settings on record: 50 pM hBTK, 2 μM biotin-A5-peptide, 25 μM ATP; 60 minute compound & enzyme incubation; read-out: BTK binding IC50. The protocol:
Btk Enzyme Activity Assay Methods
BTK enzymatic activity was determined with the LANCE (Lanthanide Chelate Excite) TR-FRET (Time-resolved fluorescence resonance energy transfer) assay. […] After 60 minutes incubation with detection reagents, reaction plates were read on a PerkinElmer EnVision plate reader using standard TR-FRET protocol.
A general note: Time-resolved FRET reads energy transfer from a long-lived donor to a nearby acceptor.

In another assay the test system is HeLa cells. Put plainly: [3H] Adenosine uptake assay. The assay is classed as cell-based. Conditions: accumulation of tritiated adenosine into HeLa cells, compound concentration range 10 μM to 0.032 nM, read-out: ADU inhibition IC50 (adenosine uptake inhibition potency). In outline: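 Accumulation of tritiated adenosine in adherent HeLa cells, detected by scintillant-plate coincidence counting, gives IC50 via 4-parameter robust fit. Compound (constant 0.25% DMSO) applied 30 min ahead, then 60 min radiolabel exposure (added from 500 nM solution), ambient conditions, HBSS with 5% FBS.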

In patent US10087188B2, “Benzamide imidazopyrazine Btk inhibitors” (MERCK SHARP & DOHME CORP., priority 2014, dated 2018) one finds IC50 data, which are given here for 21 compounds.

Each structure is given as a SMILES string. Read-outs that look alike come from different tables or passages of the source.

Chain of BTK enzyme (recombinant full-length BTK, hBTK) (Q06187 whole entry): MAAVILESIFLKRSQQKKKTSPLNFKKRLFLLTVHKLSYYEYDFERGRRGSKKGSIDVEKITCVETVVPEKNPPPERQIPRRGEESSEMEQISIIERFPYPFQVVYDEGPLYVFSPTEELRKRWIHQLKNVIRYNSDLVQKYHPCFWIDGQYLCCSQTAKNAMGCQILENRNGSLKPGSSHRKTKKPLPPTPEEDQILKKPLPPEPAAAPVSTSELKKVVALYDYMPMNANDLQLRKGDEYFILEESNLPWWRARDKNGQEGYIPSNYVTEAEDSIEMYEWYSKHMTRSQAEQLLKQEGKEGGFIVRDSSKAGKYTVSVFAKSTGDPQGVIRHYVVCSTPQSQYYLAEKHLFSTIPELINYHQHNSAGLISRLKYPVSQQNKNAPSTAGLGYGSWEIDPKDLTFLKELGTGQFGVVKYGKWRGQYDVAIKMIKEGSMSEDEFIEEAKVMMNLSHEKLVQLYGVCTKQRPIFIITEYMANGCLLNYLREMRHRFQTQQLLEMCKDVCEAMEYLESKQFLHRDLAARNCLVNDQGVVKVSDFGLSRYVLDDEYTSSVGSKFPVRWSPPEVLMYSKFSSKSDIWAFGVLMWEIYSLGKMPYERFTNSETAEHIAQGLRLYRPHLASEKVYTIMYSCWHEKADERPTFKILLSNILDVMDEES

One may read the IC50 as the concentration that inhibits the measured activity by half. On to `CCOc1cc(C(=O)Nc2cc(C(F)(F)F)ccn2)ccc1-c1nc([C@H]2CC[C@](C(=O)O)(C(C)C)C2)n2ccnc(N)c12` [Example 62, (1R,3S)-3-[8-amino-1-(2-ethoxy-4-{[4-(trifluoromethyl)pyridin-2-yl]carbamoyl}phenyl)imidazo[1,5-a]pyrazin-3-yl]-1-(1-methylethyl) cyclopentane-carboxylic acid], for which the half-maximal inhibitory concentration (IC50) in assay [1] is 0.0122 µM; with HeLa cells (Homo sapiens, HeLa), 10 µM.
On the same counts, the results for `COc1cc(C(=O)Nc2cc(C(F)(F)F)ccn2)ccc1-c1nc([C@H]2CN(C(C)(C)C(=O)O)CCO2)n2ccnc(N)c12` [Example 184, 2-{(2R)-2-[8-amino-1-(2-methoxy-4-{[4-(trifluoromethyl)pyridin-2-yl]carbamoyl}phenyl)imidazo [1,5-a]pyrazin-3-yl]morpholin-4-yl}-2-methylpropanoic acid] are 0.0612 µM and 5.41 µM.
On to `CCOc1cc(C(=O)Nc2cc(C(F)(F)F)ccn2)ccc1-c1nc([C@@H]2CC[C@@](C(=O)O)(C(C)C)C2)n2ccnc(N)c12` [Example 60, (1S,3R)-3-[8-amino-1-(2-ethoxy-4-{[4-(trifluoromethyl)pyridin-2-yl]carbamoyl}phenyl)imidazo[1,5-a]pyrazin-3-yl]-1-(1-methylethyl) cyclopentane-carboxylic acid], for which the concentration for half-maximal inhibition (IC50) in assay [1] stood at 0.0075 µM; in the assay with HeLa cells (Homo sapiens, HeLa) it was 10 µM.
For the compound `Nc1nccn2c(C34CCC(C(=O)O)(CC3)CC4)nc(-c3ccc(C(=O)Nc4cc(C(F)(F)F)ccn4)cc3O)c12` [Example 161, 4-[8-amino-1-(2-hydroxy-4-{[4-(trifluoromethyl)pyridin-2-yl]carbamoyl}phenyl)imidazo[1,5-a]pyrazin-3-yl]bicyclo[2.2.2] octane-1-carboxylic acid], the IC50 in assay [1] is 0.00041 µM; in the assay with HeLa cells (Homo sapiens, HeLa), 0.531 µM.
On to `CC1(C(=O)O)CCC(c2nc(-c3ccc(C(=O)Nc4cc(C(F)(F)F)ccn4)cc3)c3c(N)ncc(Cl)n23)CC1` (stereo not drawn) [Example 162, 4-[8-amino-5-chloro-1-(4-{[4-(trifluoromethyl)pyridin-2-yl]carbamoyl}phenyl)imidazo[1,5-a]pyrazin-3-yl]-1-methylcyclohexane-carboxylic acid], for which the IC50 in assay [1] came to 0.0023 µM; with HeLa cells (Homo sapiens, HeLa), 5.54 µM.
Taken in the same sequence, the figures for `COc1cc(C(=O)Nc2cc(C(F)(F)F)ccn2)cc(F)c1-c1nc(C2(C)CCC(C)(C(=O)O)CC2)n2ccnc(N)c12` (stereo not drawn) [Example 127, 4-[8-amino-1-(2-fluoro-6-methoxy-4-{[4-(trifluoromethyl)pyridin-2-yl]carbamoyl}phenyl)imidazo[1,5-a]pyrazin-3-yl]-1,4-dimethylcyclohexane-carboxylic acid] were 0.0013 µM and 10 µM.
Regarding `CCOc1cc(C(=O)Nc2cc(C(F)(F)F)ccn2)ccc1-c1nc(C23CCC(C(=O)O)(CC2(F)F)C(F)(F)C3)n2ccnc(N)c12` (stereo not drawn) [Example 66, 4-[8-amino-1-(2-ethoxy-4-{[4-(trifluoromethyl)pyridin-2-yl]carbamoyl}phenyl)imidazo[1,5-a]pyrazin-3-yl]-2,2,5,5-tetrafluorobicyclo [2.2.2]octane-1-carboxylic acid], the 50% inhibitory concentration (IC50) in assay [1] was determined as 0.00047 µM; in the assay with HeLa cells (Homo sapiens, HeLa), 10 µM.
On the same counts, the results for `Nc1nccn2c([C@@H]3C[C@@H]3C(=O)O)nc(-c3ccc(C(=O)Nc4cc(C(F)(F)F)ccn4)cc3)c12` [Example 167, (1S,2R)-2-[8-amino-1-(4-{[4-(trifluoromethyl)pyridin-2-yl]carbamoyl}phenyl)imidazo[1,5-a]pyrazin-3-yl]cyclopropane-carboxylic acid] are 0.76 µM and 10 µM.
On the same counts, the results for `CCOc1cc(C(=O)Nc2cc(C(F)(F)F)ccn2)ccc1-c1nc([C@]2(C)CC[C@](C)(C(=O)O)C2)n2ccnc(N)c12` [Example 87, (1S,3R)-3-[8-amino-1-(2-ethoxy-4-{[4-(trifluoromethyl)pyridin-2-yl]carbamoyl}phenyl)imidazo[1,5-a]pyrazin-3-yl]-1,3-dimethylcyclopentane carboxylic acid] are 0.0139 µM and 9.79 µM.
Taken in the same sequence, the figures for `CC(C)[C@@]1(C(=O)O)CC[C@H](c2nc(-c3ccc(C(=O)Nc4cc(C(F)(F)F)ccn4)cc3)c3c(N)ncc(Cl)n23)C1` [Example 107, (1R,3S)-3-[8-amino-5-chloro-1-(4-{[4-(trifluoromethyl)pyridin-2-yl]carbamoyl}phenyl)imidazo[1,5-a]pyrazin-3-yl]-1-(1-methylethyl) cyclopentane-carboxylic acid] were 0.0032 µM and 1.39 µM.
As for `Nc1nccn2c(N3CC[C@@H](C(=O)O)C3)nc(-c3ccc(C(=O)Nc4cc(C(F)(F)F)ccn4)cc3)c12` [Example 36, (3R)-1-[8-amino-1-(4-{[4-(trifluoromethyl)pyridin-2-yl]carbamoyl}phenyl)imidazo[1,5-a]pyrazin-3-yl]pyrrolidine-3-carboxylic acid], the IC50 in assay [1] was 0.0026 µM; with HeLa cells (Homo sapiens, HeLa), 4.7 µM.
Taken in the same sequence, the figures for `C[C@@]1(C(=O)O)CCC[C@@](C)(c2nc(-c3ccc(C(=O)Nc4cc(C(F)(F)F)ccn4)cc3)c3c(N)nccn23)C1` [Example 137, (1R,3R)-3-[8-amino-1-(4-{[4-(trifluoromethyl)pyridin-2-yl]carbamoyl}phenyl)imidazo[1,5-a]pyrazin-3-yl]-1,3-dimethylcyclohexane-carboxylic acid] were 0.0009 µM and 3.66 µM.
On the same counts, the results for `C[C@H]1CO[C@@H](c2nc(-c3ccc(C(=O)Nc4cc(C(F)(F)F)ccn4)cc3F)c3c(N)ncc(Cl)n23)CN1[C@H]1CC[C@@](C)(C(=O)O)CC1` [Example 201, cis-4-{(2R,5S)-2-[8-amino-5-chloro-1-(2-fluoro-4-{[4-(trifluoromethyl)pyridin-2-yl]carbamoyl}phenyl)imidazo [1,5-a]pyrazin-3-yl]-5-methylmorpholin-4-yl}-1-methylcyclohexanecarboxylic acid] are 0.0017 µM and 4.06 µM.
Taken in the same sequence, the figures for `C[C@]1(C(=O)O)CC[C@@](C)(c2nc(-c3ccc(C(=O)Nc4cc(C(F)(F)F)ccn4)cc3)c3c(N)nccn23)C1` [Example 80, (1S,3R)-3-[8-amino-1-(4-{[4-(trifluoromethyl)pyridin-2-yl]carbamoyl}phenyl)imidazo[1,5-a]pyrazin-3-yl]-1,3-dimethylcyclopentane carboxylic acid] were 0.0024 µM and 9.48 µM.
In the case of `Nc1nccn2c(-c3ccc(C(=O)O)cc3)nc(-c3ccc(C(=O)Nc4cc(C(F)(F)F)ccn4)cc3)c12` [Example 26, 4-[8-amino-1-(4-{[4-(trifluoromethyl)pyridin-2-yl]carbamoyl}phenyl)imidazo[1,5-a]pyrazin-3-yl]benzoic acid], the 50% inhibitory concentration (IC50) in assay [1] worked out at 0.00097 µM; with HeLa cells (Homo sapiens, HeLa), 5.58 µM.
On the same counts, the results for `CC1(C(=O)O)CCC(c2nc(-c3ccc(C(=O)Nc4cc(C5CC5)ccn4)cc3F)c3c(N)ncc(Cl)n23)CC1` (stereo not drawn) [Example 164, 4-(8-amino-5-chloro-1-{4-[(4-cyclopropylpyridin-2-yl)carbamoyl]-2-fluorophenyl}imidazo [1,5-a]pyrazin-3-yl)-1-methylcyclohexane-carboxylic acid] are 0.033 µM and 6.17 µM.
`COc1cc(C(=O)Nc2cc(C(F)(F)F)ccn2)ccc1-c1nc([C@H]2CN(C3CCC(C)(C(=O)O)CC3)[C@@H](C)CO2)n2ccnc(N)c12` (stereo partly drawn) [Example 181, 4-{(2R,5S)-2-[8-amino-1-(2-methoxy-4-{[4-(trifluoromethyl)pyridin-2-yl]carbamoyl}phenyl)imidazo [1,5-a]pyrazin-3-yl]-5-methylmorpholin-4-yl}-1-methylcyclohexanecarboxylic acid]: the IC50 came out at 0.0018 µM in assay [1] and 2.33 µM in the assay with HeLa cells (Homo sapiens, HeLa).
In the case of `Nc1nccn2c([C@H]3CC[C@@H](C(=O)N4CCC[C@H]4C(=O)O)C3)nc(-c3ccc(C(=O)Nc4cc(C(F)(F)F)ccn4)cc3)c12` [Example 17, 1-({(1R,3S)-3-[8-amino-1-(4-{[4-(trifluoromethyl)pyridin-2-yl]carbamoyl}phenyl)imidazo[1,5-a]pyrazin-3-yl]cyclopentyl}carbonyl)-L-proline], the half-inhibitory concentration (IC50) in assay [1] was 0.0019 µM; in the assay with HeLa cells (Homo sapiens, HeLa), 10 µM.
Regarding `CC(C)C1(C(=O)O)CCC(C)(c2nc(-c3ccc(C(=O)Nc4cc(C(F)(F)F)ccn4)cc3)c3c(N)nccn23)C1` (stereo not drawn) [Example 143, 3-[8-amino-1-(4-{[4-(trifluoromethyl)pyridin-2-yl]carbamoyl}phenyl)imidazo[1,5-a]pyrazin-3-yl]-3-methyl-1-(1-methylethyl)cyclopentane-carboxylic acid], the IC50 in assay [1] amounted to 0.00072 µM; with HeLa cells, 4.01 µM.
Consider `CCOc1cc(C(=O)Nc2cc(C(F)(F)F)ccn2)ccc1-c1nc([C@@H]2CC[C@](C(=O)O)(C(C)C)C2)n2ccnc(N)c12` [Example 61, (1R,3R)-3-[8-amino-1-(2-ethoxy-4-{[4-(trifluoromethyl)pyridin-2-yl]carbamoyl}phenyl)imidazo[1,5-a]pyrazin-3-yl]-1-(1-methylethyl) cyclopentane-carboxylic acid], for which the IC50 came to 0.0024 µM in assay [1] and 10 µM in the assay with HeLa cells (Homo sapiens, HeLa).
On the same counts, the results for `CCOc1cc(C(=O)Nc2cc(C(F)(F)F)ccn2)c(F)cc1-c1nc(C23CCC(C(=O)O)(CC2)CC3)n2ccnc(N)c12` [Example 149, 4-[8-amino-1-(2-ethoxy-5-fluoro-4-{[4-(trifluoromethyl)pyridin-2-yl]carbamoyl}phenyl)imidazo[1,5-a]pyrazin-3-yl]bicyclo[2.2.2] octane-1-carboxylic acid] are 0.00056 µM and 6.87 µM.
